pEC50: −log10 of the molar value.
How the values were obtained:
in vitro = conditions: chlorocebus sabaeus, Vero cells
Chikungunya virus = assay: microbe, parasite or virus in culture

Question: Which results are given for CCNc1nc(C)cc(N2CCN(C(=O)c3ccc(Cl)cc3)CC2)n1?
Answer: CC50 at 120 h (in vitro): 202 µM; pEC50 (Chikungunya virus): 4.49; EC90 (Chikungunya virus): 108 µM

From ChEMBL document CHEMBL4613309, “Identification of 2-(4-(Phenylsulfonyl)piperazine-1-yl)pyrimidine Analogues as Novel Inhibitors of Chikungunya Virus” (ACS Med Chem Lett, 2020)
